Earlier results, collected in article PMC3819103 (Magnetic resonance in medicine : official journal of the …, 2010).

Tested on: blood-brain barrier

Substance: β-Ala(Mys)-Arg-Arg-Arg-Arg-Arg-Arg-Arg-Cys-NH2 [MPAP]
- Ability to cross the blood-brain barrier and localization: could cross the blood-brain barrier, followed by localization to the cytoplasm
- Delivery of a near-infrared dye across the blood-brain barrier (earlier studies): can deliver a near-infrared dye across the blood-brain barrier
